From US8852590B2, “Compositions and methods for treating cancer” (Merck Sharp & Dohme Corp., priority 2009, dated 2014)
Entries after “also recorded” stand apart in the source; their conditions may differ.

How the values were obtained:
[1] = test system: noninfected Sf9 insect cells; test: FACScan reactivity of MAb on noninfected Sf9 insect cells; assay type: binding
Method: For the immunization stage, mice were injected twice, by the subcutaneous route, with 8 μg of recombinant IGF-IR. Three days before the fusion of the cells of the […] with the cells of the murine myeloma Sp2OAg14, the mice were stimulated by an intravenous injection of 3 μg of the recombinant receptor. Fourteen days after the fusion, the supernatants of hybridomas were screened by ELISA, on plates sensitized by recombinant IGF-IR. The hybridomas whose supernatants were found positive were conserved and amplified before being tested on the FACS can so as to verify that the antibodies produced were likewise capable of recognizing native IGF-IR. In order to do this, MCF-7 cells from an estrogen-dependent tumor of the breast overexpressing IGF-IR were incubated with each of the culture supernatants produced by the hybridomas selected in ELISA. […] At this stage of the selection, only the hybridomas secreting MAb at the same time recognizing the recombinant receptor and the native receptor were selected and cloned. The MAb secreted by these hybridomas were produced and then purified before being tested on the FACScan, according to the method described above, on […] expressing IGF-IR or IR in order to eliminate the hybridomas at the same time recognizing the two receptors.

MCF-7 cells = test: IGF-I induced proliferation of MCF-7 cells (tritiated thymidine incorporation); assay type: cell-based; settings: antibody 10 μg/ml; IGF-I 1 to 50 ng/ml
Excerpt: The cell proliferation is estimated by following on the […] the incorporation of tritiated thymidine by the cells. The results are expressed as a proliferative index.

MCF-7 tumor = test: Established MCF-7 tumor model in nude mice; assay type: in vivo; settings: 250 μg/dose/mouse twice per week, 5 to 6 weeks
Method: The in vivo selection was carried out in an established tumor model. In order to do this, nude mice received a subcutaneous implant of slow-release estrogen, indispensable for the taking of the tumor in a murine model. Twenty-four hours after implantation of the estrogens, 5.10^6 MCF-7 cells are grafted onto the right flank of the mouse subcutaneously. Five days after this cell graft, the tumors are measurable and batches of 6 mice are formed at random. The treatment of the mice is carried out twice per week, during 5 to 6 weeks, at the dose of 250 μg/dose/mouse. In the control group, the mice are treated in the same fashion with a murine control isotype.

[2] = test system: PI3 Kinase signaling pathway in H2122 cells; test: Western blot of PI3K pathway signaling in H2122 cells; assay type: cell-based, human; settings: 4 hrs
Method: Methods: All the NSCLC cell lines were obtained from ATCC and maintained in RPMI 1640 with 10% fetal bovine serum (Invitrogen). […] Samples were western blotted with indicated total or phosphospecific antibodies followed by a secondary antibody (Cell Signaling Technology, CST) and then incubated with SuperSignal chemiluminescence substrate (Pierce). The blots were then exposed to a Kodak Biomax Light Film. The antibodies against ERK, p-ERK (Thr202/Tyr204), AKT and p-AKT (Ser473), IGF S6K & P-S6K (T389), IRS1 & P-IRS1 (S302) and actin were obtained from CST. Cell cycle analysis was performed in H2122 cells following 24 hr treatment with indicated compounds (see above). One million cells were permiabilized and stained with propidium Iodide (PI) as described by the manufacturer (BD Pharmingen #550825). PI binds to both DNA and RNA, so the latter was removed by digestion with ribonucleases (RNase A). The content of DNA as determined by flow cytometry, can reveal useful information about the cell cycle. Cells in G2 and M phases of the cell cycle have double the DNA content of those in G0 and G1 phases. Cells in S phase have a DNA content lying between these extremes. PI is detected in the orange range of the spectrum using a 562-588 nm band pass filter using a flow cytometer. […] Both compounds act by inhibiting oncogenic signaling through the PI3 Kinase signaling pathway. […]

A549 cell line = test: Soft agar colony formation assay, A549; assay type: cell-based, human; settings: Ridaforolimus 10 nM, MK-0646 10 ug/ml, no supplemented IGF
Method: (§1) The colony formation assay was performed in the absence of supplemented IGF. […] No significant correlation of KRAS-status and response to the combination was observed.
(§2) Methods: Soft agar assays were conducted in 96 well glass bottom plates (MatriCal). Cells were seeded at a concentration of 3,000-9,000 cells per well in 100 μl RMPI 1640 supplemented with 14% FBS and 0.3% (w/v) SeaPlaque Agarose (Lonza Rockland, Inc) on top of a bottom layer of consisting of the same culture media supplemented with 0.8% agarose. Compounds were added in 100 μl of culture media supplemented after agarose had solidified. Cells were incubated for 7-14 days before staining overnight with LavaCell (Active Motif). Colonies were quantified using an Isocyte™ laser scanning cytometer. […] The RTK status was evaluated in total protein lysates using the P-RTK arrays (R&D biosciences) as described by the manufacturer. The activating mutations in KRAS were identified from published cancer genome data bases (Sanger).

H2122 cell line = test: Soft agar colony formation assay, H2122; assay type: cell-based, human; settings: Ridaforolimus 10 nM, MK-0646 10 ug/ml, no supplemented IGF
Method: as §1, §2

[3] = test system: A549 human NSCLC xenograft; test: A549 mutant-KRAS lung xenograft model; assay type: in vivo, athymic Nude-Foxn1nu mice
Method: Method: 2.5×10^6 A549 human NSCLC cells were injected subcutaneously into the right flank of 4-6 week old athymic Nude-Foxn1nu mice (Charles River Laboratories). When tumors reached a size of ˜300 mm3 (Length*Width*Width*0.5), mice were randomized into treatment groups. […] Animals were weighed and tumor volumes were determined by calipering 2 times per week during the study and at termination. Tumor weight was determined at termination. On day 21 Animals were sacrificed by CO2 asphyxiation. Mice were sacrificed 24 hr after the final dose. At time of sacrifice, the tissue samples were collected and processed.

H1703 = test: Soft agar colony formation assay, H1703; assay type: cell-based, human; settings: H1703, low expression of IGF1R
Method: as §1, §2

AKT-P = settings: treatment of patients, O'Reilly et al 2006; cited from earlier work

## 7C10: murine monoclonal antibody secreted by hybridoma deposited at CNCM, IgG1, directed against IGF-IR [Example 7C10]
[1]
  MFI (Mean fluorescence intensity): 8.6
MCF-7 cells
  inhibition of proliferation of MCF-7 cells induced by IGF-I: significantly inhibits
MCF-7 tumor
  inhibition of tumor growth: very significant inhibition

## CO[C@H]1C[C@@H]2CC[C@@H](C)[C@@](O)(O2)C(=O)C(=O)N2CCCC[C@H]2C(=O)O[C@H]([C@H](C)C[C@@H]2CC[C@@H](OP(C)(C)=O)[C@H](OC)C2)CC(=O)[C@H](C)/C=C(\C)[C@@H](O)[C@@H](OC)C(=O)[C@H](C)C[C@H](C)/C=C/C=C/C=C/1C [Ridaforolimus, Dimethyl-Phosphinic Acid C-43 Rapamycin Ester]
[2]; Ridaforolimus 10 nM
  phosphorylation of S6K: preventing
A549 cell line
  soft agar growth inhibition: only limited single agent activity
H2122 cell line
  soft agar growth inhibition: only limited single agent activity
[3]; Rida 0.1mpk, 3 weeks, end of treatment
  Relative tumor growth: 35.01%

## C#Cc1cccc(Nc2ncnc3cc(OCCOC)c(OCCOC)cc23)c1 [Erlotinib]
[3]; Erlotinib treated group compared to vehicle
  tumor growth inhibition: No significant growth inhibition; also recorded: did not result in any appreciable tumor growth inhibition

## MK-0646: humanized antibody binding IGF-1R as well as the IR/IGF-1 hybrid receptor
[2]; MK-0646 10 ng/ml
  AKT phosphorylation: preventing
A549 cell line
  soft agar growth inhibition: only limited single agent activity
H2122 cell line
  soft agar growth inhibition: only limited single agent activity
H1703
  soft agar single agent sensitivity: resistant

## CO[C@H]1C[C@@H]2CC[C@@H](C)[C@@](O)(O2)C(=O)C(=O)N2CCCC[C@H]2C(=O)O[C@H]([C@H](C)C[C@@H]2CC[C@@H](OCCO)[C@H](OC)C2)CC(=O)[C@H](C)/C=C(\C)[C@@H](O)[C@@H](OC)C(=O)[C@H](C)C[C@H](C)/C=C/C=C/C=C/1C [RAD001]
AKT-P
  AKT-P level in patients: elevated AKT-P
